Test results published in patent publication US9249116B2, “Enzyme-activating compounds and compositions” (The Board of Trustees of the University of Illinois, priority 2012, dated 2016).

Experiments:
procaspase-3 = target: T1, procaspase-3 (Homo sapiens, UniProt P42574); assay: Procaspase-3 activity assay (relief of zinc-mediated inhibition, Ac-DEVD-pNA cleavage); format: biochemical; conditions: procaspase-3 incubated with […] ZnSO4; method gives compounds at 25 μM
T1 construct: 6xHis (C); made in house; host or cells: Rosetta E. coli
T1 sequence (P42574 1-277): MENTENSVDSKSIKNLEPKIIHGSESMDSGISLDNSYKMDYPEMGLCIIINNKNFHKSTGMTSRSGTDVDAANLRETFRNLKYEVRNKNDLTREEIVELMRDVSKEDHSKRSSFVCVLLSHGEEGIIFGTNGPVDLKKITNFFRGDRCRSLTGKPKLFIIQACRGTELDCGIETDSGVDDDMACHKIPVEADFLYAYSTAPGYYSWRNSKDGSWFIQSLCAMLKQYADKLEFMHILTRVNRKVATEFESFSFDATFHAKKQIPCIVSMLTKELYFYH
Procedure: The six confirmed hits were then evaluated in vitro for their ability to relieve zinc-mediated inhibition of procaspase-3 (Table A). In this experiment, procaspase-3 was incubated with ZnSO4, conditions in which procaspase-3 has no enzymatic activity.
Techniques adapted from Hergenrother and coworkers (Putt et al., Nat Chem Biol 2006, 2, 543-550). A 20 mL volume of an overnight culture of Rosetta E. coli containing the procaspase-3 (wild-type) expression plasmid was seeded into 2 L of LB media containing ampicillin. The culture was grown to an OD600=1.0, at which point protein expression was induced via addition of IPTG (to 1 mM); the culture was allowed to grow for 30 additional minutes. Cells were then harvested (10 minute spins at 10,000×g and re-suspended in NTA binding buffer (300 mM NaCl, 50 mM Tris, 10 mM imidazole, pH 8.0). The cells were lysed on ice via sonication. The cell lysate was then spun at 35,000×g for […] The supernatant was decanted and 1 mL of nickel-NTA resin was added. The cell lysate was incubated for 45 minutes at 4° C. The resin was loaded on a column, washed with 10 mL NTA binding buffer followed by 10 mL NTA wash buffer (300 mM NaCl, 50 mM Tris, 50 mM imidazole, pH 8.0). The proteins were eluted in 0.5 mL fractions with 10 mL of NTA elution buffer (300 mM NaCl, 50 mM Tris, 500 mM imidazole, pH 8.0). Fractions containing protein were pooled and further purified to remove any contaminating zinc by applying the protein to a PD-10 column (GE Healthcare) charged with Caspase Activity Buffer that had been treated with Chelex® resin. The resulting concentration was determined using the Edelhoch method and the molar absorptivity of procaspase-3 of 26150 M^−1 cm^−1. Protein stocks were flash-frozen in liquid nitrogen and stored at −80° C.
In a 384-well plate recombinantly expressed, zinc-free procaspase-3 (wild type, at 1 μM) in Caspase Activity Buffer (50 mM HEPES, 300 mM NaCl, 1.5 mM TCEP, 0.01% TritonX-100) was incubated at 37° C. in the presence of 3.5 μM ZnSO4 and the basal activity was assessed via the addition of Ac-DEVD-pNA (final concentration in well of 200 μM). The absorbance at 405 nm was monitored with a SpectraMax plate reader (Molecular Devices). […] Activity of each treatment was assessed at 5, 20, 40 and 60 minutes via 5-minute kinetic reads. The slope of each data set was used to determine the activity of the protein. Activity was normalized to a percent activity at each time point using a zinc-free sample and a zinc-inhibited sample treated with DMSO.

[1] = tested on: U-937 cells (human lymphoma); assay: 72 Hour IC50 cell death assay (sulforhodamine B); format: cell-based; conditions: U-937, 72 h, read-out: U-937 72 h IC50 (μM)
Procedure: After the synthesis was complete, the biological activity of the compounds was evaluated.
U-937 human lymphoma cells were plated into the wells of 96 well plate at a density of 15,000 cells per well in 99 μL of RPMI 1640 growth media with 10% FBS and 1% pen-strep. To each well was added 1 μL of compound stock solutions in DMSO at varying concentrations such that the cells were treated with concentrations between 0 μM and 100 μM compound. Each concentration was tested in quintuplicate per plate. In each plate 5 wells received 20 μM doxorubicin as a positive death control and 5 wells received 1 μL of DMSO as a negative control.
After the 72 hour incubation period, the plates were analyzed using a Sulforhodamine B assay (Vichai and Kirtikara, Nat Protoc 2006, 1, 1112-1116). Specifically, to each well of the plate 25 μL of a 50% (w/v) solution of trichloroacetic acid in H2O was added and the plates were incubated for 4 hours at 4° C. The plates were then washed gently with water five times. The plates were allowed to air dry after which 100 μL of a 0.057% (w/v) Sulforhodamine B in a 1% (v/v) acetic acid solution was added to each well for 30 minutes at room temperature. The plates were gently washed 5 times with 1% (v/v) acetic acid and air dried. 200 μL of 10 mM Tris base (pH 10.4) was added to each well and the plates were placed on an orbital shaker for thirty minutes. The level of SRB was quantified fluorometrically at excitation and emission wavelengths 488 and 585 nm, respectively, on a Molecular Devices plate reader and the percent cell death calculated and normalized to the positive control (100% cell death) and the negative control (0% cell death). The percent cell death was averaged for each compound concentration and plotted as a function of compound concentration. The data were fit to a logistical dose response curve using Table curve 2D and the IC50 value was calculated. The experiment was repeated three times and the average of the calculated IC50 values was reported. The standard error of the mean (SEM) was determined and reported for the triplicate experiments.

[2] = Liver microsome stability assay; format: in vitro ADME; conditions: rat liver microsomes, 10 μM, LC/MS
Procedure: FIG. 4. Liver Microsome Stability Assay. Compounds (10 μM) incubated with liver microsomes for 3 h and quenched with MeCN containing internal standard, analyzed by LC/MS (280 nm). Next, the metabolic stability of the compounds was evaluated in rat liver microsomes. The compounds were evaluated for 3 hours at 10 μM, and the metabolites were observed by LC/MS.

mice = assay: Assessment of toxicity in vivo; conditions: mouse, in vivo
Description: The level of toxicity was rated on a scale of 0 (no observable adverse effect) to 3 (severe toxicity, almost fatal).

Row | Procaspase-3 (% Activity at […]) (procaspase-3) | RLM 3 h % Stability ([2]; listed as 2 (S-PAC-1)) | Compound | IC50 [1] | RLM 3 h % Stability [2] | Mouse Toxicity (mice)
1 | 60 ± 2.4% |  | CCc1ccc(CN2CCN(CC(=O)N/N=C/c3cc(C(C)(C)C)cc(C(C)(C)C)c3O)CC2)cc1 [3{28,7}] |  |  | 
2 | 4 ± 0.6% | 84 ± 0% | C=CCc1cccc(/C=N/NC(=O)CN2CCN(Cc3ccc(S(N)(=O)=O)cc3)CC2)c1O [S-PAC-1, reference compound] |  | reasonably stable | 

Row | Compound | Procaspase-3 (% Activity at […]) (procaspase-3) | RLM 3 h % Stability ([2]; listed as 2 (S-PAC-1)) | IC50 [1] | RLM 3 h % Stability [2] | Mouse Toxicity (mice)
3 | C=CCc1cccc(/C=N/NC(=O)CN2CCN(Cc3ccccc3)CC2)c1O [PAC-1, Procaspase-Activating Compound 1, reference compound] | 42 ± 1.8% |  | 10.2 ± 0.3 µM | 38 ± 2% | 3
